From ChEMBL document CHEMBL1201862, “PubChem BioAssay data set” (2004)
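Five compound concentrations were applied to cells in 96-well plates for 48 hours; endpoints were derived by simple linear interpolation of the resulting dose-response curve. Here, GI50 denotes the concentration required for 50% inhibition of growth.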 Calls of active or inactive are those of the source. Rule as the data show it: active = GI50 up to about 1.1 µM and inactive = higher.

Tests used:
Test in all cases: inhibition of tumour cell growth, NCI panel, 48 h
DMS-273 = test system: DMS-273
KM-20L2 = test system: KM-20L2
M19-MEL = test system: M19-MEL
SNB-78 = test system: SNB-78
XF498 = test system: XF498
DMS-114 = test system: DMS-114
HOP-18 = test system: HOP-18
LXFL 529 = test system: LXFL 529
RXF 631 = test system: RXF 631

SMILES	GI50 (DMS-273)	GI50 (KM-20L2)	GI50 (M19-MEL)	GI50 (SNB-78)	GI50 (XF498)	GI50 (DMS-114)	GI50 (HOP-18)	GI50 (LXFL 529)	GI50 (RXF 631)
COc1ccc(CC2C(=O)NC(C)C(=O)N(C)C3Cc4ccc(cc4)Oc4cc(ccc4O)CC(C(=O)NC(C)C(=O)NC(C)C(=O)N2C)N(C)C3=O)cc1 (configuration not stated)	0.0175 µM (active)	0.0175 µM (active)	0.0175 µM (active)	0.0175 µM (active)	0.0175 µM (active)				
CC(=O)OC1COC(n2c(=S)n(-c3ccc(C)cc3)c(=O)c3ccccc32)C(OC(C)=O)C1OC(C)=O (configuration not stated)	> 100 µM (inactive)	> 100 µM (inactive)	> 100 µM (inactive)	> 100 µM (inactive)	> 100 µM (inactive)	> 100 µM (inactive)	> 100 µM (inactive)	58.3 µM (inactive)	68.9 µM (inactive)
O=S(=O)(N/N=C/c1cccc(/C=N/NS(=O)(=O)c2ccccc2)c1)c1ccccc1	> 100 µM (inactive)	> 100 µM (inactive)	> 100 µM (inactive)	> 100 µM (inactive)		47.4 µM (inactive)	91 µM (inactive)	39 µM (inactive)	73.8 µM (inactive)
COC(=O)c1ccccc1N1C(=O)Cc2ccccc2C1=O	> 100 µM (inactive)	> 100 µM (inactive)	> 100 µM (inactive)	> 100 µM (inactive)		> 100 µM (inactive)		> 100 µM (inactive)	
Cc1[nH]c2ccccc2c1-c1n[nH]c(=O)c2ccccc12	8.79 µM (inactive)	25.2 µM (inactive)	29 µM (inactive)	46.8 µM (inactive)	27.1 µM (inactive)	14.8 µM (inactive)		21.6 µM (inactive)	13 µM (inactive)
CC(C)OC(=O)c1cccnc1/C=N/O	> 100 µM (inactive)	> 100 µM (inactive)	> 100 µM (inactive)	> 100 µM (inactive)	> 100 µM (inactive)	> 100 µM (inactive)		> 100 µM (inactive)	
Cc1[nH]c2ccccc2c1C1Cc2ccccc2N1C(=O)/C(Cl)=C/c1ccccc1 (configuration not stated)	> 100 µM (inactive)	> 100 µM (inactive)	> 100 µM (inactive)	23.3 µM (inactive)	12.4 µM (inactive)	> 20.9 µM (inactive)	66.2 µM (inactive)	> 100 µM (inactive)	> 100 µM (inactive)
CCOC(=O)/C=C1\CCCC12OCCO2	53.5 µM (inactive)	> 100 µM (inactive)	> 100 µM (inactive)	> 100 µM (inactive)		85.5 µM (inactive)	> 100 µM (inactive)	> 100 µM (inactive)	
O=c1c(C(c2ccc([N+](=O)[O-])cc2)c2c(O)c3ccccc3n(-c3ccccc3)c2=O)c(O)c2ccccc2n1-c1ccccc1	22.9 µM (inactive)	27.2 µM (inactive)	32.5 µM (inactive)	21.7 µM (inactive)	19.7 µM (inactive)	20.3 µM (inactive)	2.4 µM (inactive)	8.05 µM (inactive)	14.7 µM (inactive)
CC1=CCCC2C1(C)CCC(C)C2(C)Cc1cc(O)ccc1O (configuration not stated)	4.91 µM (inactive)	10.8 µM (inactive)	5.57 µM (inactive)	2.59 µM (inactive)	7.23 µM (inactive)	4.2 µM (inactive)	19.2 µM (inactive)		
CNC(C)(C)Cc1ccc(Cl)cc1		> 100 µM (inactive)	> 100 µM (inactive)		34.7 µM (inactive)	> 100 µM (inactive)		> 100 µM (inactive)	
NC(=O)C(=O)C1C(=O)N(c2ccccc2)N=C1N (configuration not stated)	> 100 µM (inactive)	> 100 µM (inactive)		> 100 µM (inactive)	> 100 µM (inactive)			> 100 µM (inactive)	
CC(C)C(C(=O)O)N(CC1(O)OCC(O)C(O)C1O)N=O (configuration not stated)	> 100 µM (inactive)	> 100 µM (inactive)	> 100 µM (inactive)	> 100 µM (inactive)	> 100 µM (inactive)	> 100 µM (inactive)		> 100 µM (inactive)	> 100 µM (inactive)
O=C(CCc1ccccc1)NS(=O)(=O)c1ccccc1		> 100 µM (inactive)	> 100 µM (inactive)		> 100 µM (inactive)	> 100 µM (inactive)	> 100 µM (inactive)	> 100 µM (inactive)	> 100 µM (inactive)
CC(=O)OCCOCNC(=S)N/N=C/c1cc(Br)cs1	> 100 µM (inactive)	> 100 µM (inactive)	> 100 µM (inactive)	> 100 µM (inactive)	> 100 µM (inactive)	> 100 µM (inactive)	> 100 µM (inactive)	> 100 µM (inactive)	> 100 µM (inactive)
Cc1cc(N(CCC#N)S(=O)(=O)c2ccccc2)ccc1C=O	> 100 µM (inactive)	> 100 µM (inactive)		> 100 µM (inactive)		> 100 µM (inactive)	> 100 µM (inactive)	> 100 µM (inactive)	> 100 µM (inactive)
CC(C)(C)NCC(COc1ccc([N+](=O)[O-])cc1)OP(c1ccccc1)c1ccccc1 (configuration not stated)	29.8 µM (inactive)	36.4 µM (inactive)	40.6 µM (inactive)	25.9 µM (inactive)	22.5 µM (inactive)	23 µM (inactive)		19.3 µM (inactive)	
O=C(CC(=O)c1cccc2ccccc12)C(=O)Nc1nccs1	> 100 µM (inactive)	> 100 µM (inactive)	> 100 µM (inactive)	> 100 µM (inactive)			> 100 µM (inactive)	> 100 µM (inactive)	
CN(C)CC1(C)CC/C(=C\c2ccc3c(c2)OCO3)C1=O (configuration not stated)	> 100 µM (inactive)	3.72 µM (inactive)	> 100 µM (inactive)	> 100 µM (inactive)	> 100 µM (inactive)	57.4 µM (inactive)	> 100 µM (inactive)	> 100 µM (inactive)	
Clc1ccc2c(c1)-c1c3c(nn1-c1ccccc1)-c1ccccc1SC3O2 (configuration not stated)	> 100 µM (inactive)	> 100 µM (inactive)	> 100 µM (inactive)	> 100 µM (inactive)	> 100 µM (inactive)	56.1 µM (inactive)	> 100 µM (inactive)	> 100 µM (inactive)	
NC1CCC2(O)c3ccccc3C2C1 (configuration not stated)	> 100 µM (inactive)	> 100 µM (inactive)	> 100 µM (inactive)	> 100 µM (inactive)	> 100 µM (inactive)	> 100 µM (inactive)	> 100 µM (inactive)	> 100 µM (inactive)	
Cc1ccc(/N=N/c2c(C)nn(-c3ccccc3)c2-c2ccccc2)c(Br)c1		> 100 µM (inactive)	55.1 µM (inactive)				> 100 µM (inactive)	87.9 µM (inactive)	34.4 µM (inactive)
CC1C=CC(C)C2(O)C(=O)NC(O)C12 (configuration not stated)	> 100 µM (inactive)	> 100 µM (inactive)	> 100 µM (inactive)	> 100 µM (inactive)		> 100 µM (inactive)	> 100 µM (inactive)	> 100 µM (inactive)	> 100 µM (inactive)
NC(N)=NN/C(=C1/N=c2ccc([N+](=O)[O-])cc2=NC1=O)C(O)c1ccco1 (configuration not stated)	> 100 µM (inactive)	> 100 µM (inactive)	> 100 µM (inactive)	> 100 µM (inactive)	> 100 µM (inactive)	27.5 µM (inactive)	> 100 µM (inactive)	92.7 µM (inactive)	
c1ccc2c(NCCCCCCNc3c4ccccc4nc4ccccc34)c3ccccc3nc2c1	0.0214 µM (active)	0.0785 µM (active)	1.09 µM (active)	0.498 µM (active)	1.41 µM (inactive)	0.366 µM (active)	2.91 µM (inactive)	0.155 µM (active)	
CN(C)CCN1C(=O)c2cccc3cc(N)cc(c23)C1=O [AMONAFIDE]	2.07 µM (inactive)	3.99 µM (inactive)	4.19 µM (inactive)		0.946 µM (active)	4.21 µM (inactive)	5.2 µM (inactive)		
C[C@H](N)C(=O)N[C@@H]1[C@H]2C(=C(O)C[C@@H](O)[C@@H]2O)C(=O)O[C@]1(C)C(Cl)Cl [BACTOBOLIN]	0.327 µM (active)	0.262 µM (active)	0.232 µM (active)	0.281 µM (active)	0.0938 µM (active)	0.178 µM (active)	0.57 µM (active)	0.108 µM (active)	0.289 µM (active)
